{
  "source": "patent US11225462B2",
  "about": "“Crystal forms of oxypyridine amide derivative and preparation method therefor” (JIANGSU HENGRUI MEDICINE CO., LTD., priority 2018, dated 2022)",
  "type_in_all_cases": "physicochemical",
  "key": {"[1]": {"assay": "Influencing factor experiments (light, high temperature, high humidity, 30 days)", "details": "for Crystal form: day 5 to day 10, time not clear", "protocol": "Crystal forms A, B, D and F of the compound of formula (I) were spread and left open to the air, and under conditions of high temperature (40° C. and 60° C.), light (4500 Lux), high humidity (RH 75% and RH 90%), the stability thereof were investigated for a period of 30 days."}, "[2]": {"assay": "DVS (dynamic vapor sorption) hygroscopicity characterization", "details": "for mass increase under normal conditions: 25° C. and 60% RH; for hygroscopicity according to guidelines for drug hygroscopicity test in China Pharmacopoeia (2015 edition) / mass increase as the humidity increases: 25° C., 10% RH to 80% RH; for mass increase under accelerated test conditions: 70% RH; for mass increase under extreme conditions: 90% RH; for desorption process and adsorption process of the sample: humidity change from 0% to 95%", "protocol": "DVS refers to dynamic vapor sorption and is determined using SMS DVS Advantage at 25° C., with the humidity change of 50%-95%-0%-95%-50% and the stepping of 10% (5% for the last step) (the specific humidity range is determined in accordance with the corresponding plot, and the methods listed herein are those most commonly used), and the standard for determination is as follow: dm/dt is not more than 0.02%, and Tmax is not more than 360 min."}, "[3]": {"assay": "Long-term and accelerated stability experiments (3 months)", "protocol": "The long-term (25° C., 60% RH) and accelerated (40° C., 75% RH) stability of crystal form A and crystal form F of the compound of formula (I) were investigated for 3 months."}},
  "data": [
    {"smiles": "CCC(=O)c1ccc(Cl)cc1-c1cc(=O)n([C@@H](CCOC(C)(C)C)C(=O)Nc2ccc(C(=O)O)cc2)cc1OC", "note": "[Crystal form D, (S)-4-(4-(tert-butoxy)-2-(4-(5-chloro-2-propionylphenyl)-5-methoxy-2-oxopyridin-1(2H)-yl)butanamido)benzoic acid]", "values": [
      {"measurement": "% Purity", "setting": "[1]; 40° C., 5 days", "value": 99.53, "unit": "%"},
      {"measurement": "Color and trait", "setting": "[1]; 40° C., 5 days", "value": "Off-white"},
      {"measurement": "% Purity", "setting": "[1]; 40° C., 10 days", "value": 99.02, "unit": "%"},
      {"measurement": "Color and trait", "setting": "[1]; 40° C., 10 days", "value": "Off-white"},
      {"measurement": "% Purity", "setting": "[1]; 40° C., 30 days", "value": 98.95, "unit": "%"},
      {"measurement": "Color and trait", "setting": "[1]; 40° C., 30 days", "value": "Off-white"},
      {"measurement": "Crystal form", "setting": "[1]; 40° C.", "value": "Amor-"},
      {"measurement": "% Purity", "setting": "[1]; 60° C., 5 days", "value": 99.40, "unit": "%"},
      {"measurement": "Color and trait", "setting": "[1]; 60° C., 5 days", "value": "Off-white"},
      {"measurement": "% Purity", "setting": "[1]; 60° C., 10 days", "value": 99.31, "unit": "%"},
      {"measurement": "Color and trait", "setting": "[1]; 60° C., 10 days", "value": "Off-white"},
      {"measurement": "% Purity", "setting": "[1]; 60° C., 30 days", "value": 99.09, "unit": "%"},
      {"measurement": "Color and trait", "setting": "[1]; 60° C., 30 days", "value": "Off-white"},
      {"measurement": "Crystal form", "setting": "[1]; 60° C.", "value": "Amor-"},
      {"measurement": "% Purity", "setting": "[1]; 4500 Lux, 5 days", "value": 99.58, "unit": "%"},
      {"measurement": "Color and trait", "setting": "[1]; 4500 Lux, 5 days", "value": "Off-white"},
      {"measurement": "% Purity", "setting": "[1]; 4500 Lux, 10 days", "value": 99.57, "unit": "%"},
      {"measurement": "Color and trait", "setting": "[1]; 4500 Lux, 10 days", "value": "Off-white"},
      {"measurement": "% Purity", "setting": "[1]; 4500 Lux, 30 days", "value": 99.26, "unit": "%"},
      {"measurement": "Color and trait", "setting": "[1]; 4500 Lux, 30 days", "value": "Off-white"},
      {"measurement": "Crystal form", "setting": "[1]; 4500 Lux", "value": "Amor-"},
      {"measurement": "% Purity", "setting": "[1]; Initial condition, day 0", "value": 99.59, "unit": "%"},
      {"measurement": "Color and trait", "setting": "[1]; Initial condition, day 0", "value": "Off-white"},
      {"measurement": "% Purity", "setting": "[1]; RH 75%, 5 days", "value": 99.56, "unit": "%"},
      {"measurement": "% Weight gain", "setting": "[1]; RH 75%, 5 days", "value": 5.30, "unit": "%"},
      {"measurement": "Color and trait", "setting": "[1]; RH 75%, 5 days", "value": "Off-white"},
      {"measurement": "% Purity", "setting": "[1]; RH 75%, 10 days", "value": 99.53, "unit": "%"},
      {"measurement": "% Weight gain", "setting": "[1]; RH 75%, 10 days", "value": 5.48, "unit": "%"},
      {"measurement": "Color and trait", "setting": "[1]; RH 75%, 10 days", "value": "Off-white"},
      {"measurement": "% Purity", "setting": "[1]; RH 75%, 30 days", "value": 99.55, "unit": "%"},
      {"measurement": "% Weight gain", "setting": "[1]; RH 75%, 30 days", "value": 5.56, "unit": "%"},
      {"measurement": "Color and trait", "setting": "[1]; RH 75%, 30 days", "value": "Off-white"},
      {"measurement": "Crystal form", "setting": "[1]; RH 75%", "value": "Amor-"},
      {"measurement": "% Purity", "setting": "[1]; RH 90%, 5 days", "value": 99.57, "unit": "%"},
      {"measurement": "% Weight gain", "setting": "[1]; RH 90%, 5 days", "value": 7.45, "unit": "%"},
      {"measurement": "Color and trait", "setting": "[1]; RH 90%, 5 days", "value": "Off-white"},
      {"measurement": "% Purity", "setting": "[1]; RH 90%, 10 days", "value": 99.54, "unit": "%"},
      {"measurement": "% Weight gain", "setting": "[1]; RH 90%, 10 days", "value": 8.67, "unit": "%"},
      {"measurement": "Color and trait", "setting": "[1]; RH 90%, 10 days", "value": "Off-white"},
      {"measurement": "% Purity", "setting": "[1]; RH 90%, 30 days", "value": 99.55, "unit": "%"},
      {"measurement": "% Weight gain", "setting": "[1]; RH 90%, 30 days", "value": 9.53, "unit": "%"},
      {"measurement": "Color and trait", "setting": "[1]; RH 90%, 30 days", "value": "Off-white"},
      {"measurement": "Crystal form", "setting": "[1]; RH 90%", "value": "Amor-"},
      {"measurement": "mass increase under normal conditions", "setting": "[2]", "value": "about 2.143%"},
      {"measurement": "hygroscopicity according to guidelines for drug hygroscopicity test in China Pharmacopoeia (2015 edition)", "setting": "[2]", "value": "hygroscopic (less than 15% but not less than 2%)"},
      {"measurement": "mass increase as the humidity increases", "setting": "[2]", "value": "about 2.420%"},
      {"measurement": "mass increase under accelerated test conditions", "setting": "[2]", "value": "about 2.494%"},
      {"measurement": "mass increase under extreme conditions", "setting": "[2]", "value": "about 3.422%"},
      {"measurement": "crystal form before and after DVS detection (XRPD comparison)", "setting": "[2]", "value": "crystallinity of the crystal form become worse"},
      {"measurement": "desorption process and adsorption process of the sample", "setting": "[2]", "value": "do not coincide"}
    ]},
    {"smiles": "CCC(=O)c1ccc(Cl)cc1-c1cc(=O)n([C@@H](CCOC(C)(C)C)C(=O)Nc2ccc(C(=O)O)cc2)cc1OC", "note": "[Crystal form F, (S)-4-(4-(tert-butoxy)-2-(4-(5-chloro-2-propionylphenyl)-5-methoxy-2-oxopyridin-1(2H)-yl)butanamido)benzoic acid]", "values": [
      {"measurement": "% Purity", "setting": "[1]; 40° C., 5 days", "value": 99.67, "unit": "%"},
      {"measurement": "% Purity", "setting": "[1]; 40° C., 10 days", "value": 99.62, "unit": "%"},
      {"measurement": "% Purity", "setting": "[1]; 40° C., 30 days", "value": 99.57, "unit": "%"},
      {"measurement": "% Purity", "setting": "[1]; 60° C., 5 days", "value": 99.68, "unit": "%"},
      {"measurement": "% Purity", "setting": "[1]; 60° C., 10 days", "value": 99.65, "unit": "%"},
      {"measurement": "% Purity", "setting": "[1]; 60° C., 30 days", "value": 99.59, "unit": "%"},
      {"measurement": "% Purity", "setting": "[1]; 4500 Lux, 5 days", "value": 99.66, "unit": "%"},
      {"measurement": "% Purity", "setting": "[1]; 4500 Lux, 10 days", "value": 99.64, "unit": "%"},
      {"measurement": "% Purity", "setting": "[1]; 4500 Lux, 30 days", "value": 99.64, "unit": "%"},
      {"measurement": "% Purity", "setting": "[1]; Initial condition, day 0", "value": 99.67, "unit": "%"},
      {"measurement": "% Purity", "setting": "[1]; RH 75%, 5 days", "value": 99.65, "unit": "%"},
      {"measurement": "% Weight gain", "setting": "[1]; RH 75%, 5 days", "value": 5.23, "unit": "%"},
      {"measurement": "% Purity", "setting": "[1]; RH 75%, 10 days", "value": 99.63, "unit": "%"},
      {"measurement": "% Weight gain", "setting": "[1]; RH 75%, 10 days", "value": 5.34, "unit": "%"},
      {"measurement": "% Purity", "setting": "[1]; RH 75%, 30 days", "value": 99.62, "unit": "%"},
      {"measurement": "% Weight gain", "setting": "[1]; RH 75%, 30 days", "value": 10.03, "unit": "%"},
      {"measurement": "% Purity", "setting": "[1]; RH 90%, 5 days", "value": 99.66, "unit": "%"},
      {"measurement": "% Weight gain", "setting": "[1]; RH 90%, 5 days", "value": 7.26, "unit": "%"},
      {"measurement": "% Purity", "setting": "[1]; RH 90%, 10 days", "value": 99.63, "unit": "%"},
      {"measurement": "% Weight gain", "setting": "[1]; RH 90%, 10 days", "value": 8.40, "unit": "%"},
      {"measurement": "% Purity", "setting": "[1]; RH 90%, 30 days", "value": 99.65, "unit": "%"},
      {"measurement": "% Weight gain", "setting": "[1]; RH 90%, 30 days", "value": 12.83, "unit": "%"},
      {"measurement": "physical and chemical stability (conclusion)", "setting": "[1]; light, 40° C., 60° C., 75% RH or 90% RH for 30 days", "value": "good physical and chemical stability"},
      {"measurement": "mass increase under normal conditions", "setting": "[2]", "value": "about 0.0457%"},
      {"measurement": "hygroscopicity according to guidelines for drug hygroscopicity test in China Pharmacopoeia (2015 edition)", "setting": "[2]", "value": "hardly hygroscopic (less than 2%)"},
      {"measurement": "mass increase as the humidity increases", "setting": "[2]", "value": "about 0.1464%"},
      {"measurement": "mass increase under accelerated test conditions", "setting": "[2]", "value": "about 0.0701%"},
      {"measurement": "mass increase under extreme conditions", "setting": "[2]", "value": "about 0.2744%"},
      {"measurement": "crystal form before and after DVS detection (XRPD comparison)", "setting": "[2]", "value": "unchanged"},
      {"measurement": "desorption process and adsorption process of the sample", "setting": "[2]", "value": "basically coincide"},
      {"measurement": "% Purity 1 month", "setting": "[3]; 25° C., 60% RH", "value": 99.68, "unit": "%"},
      {"measurement": "% Purity 2 months", "setting": "[3]; 25° C., 60% RH", "value": 99.65, "unit": "%"},
      {"measurement": "% Purity 3 months", "setting": "[3]; 25° C., 60% RH", "value": 99.65, "unit": "%"},
      {"measurement": "% Purity Initial condition", "setting": "[3]; 25° C., 60% RH", "value": 99.69, "unit": "%"},
      {"measurement": "% Purity 1 month", "setting": "[3]; 40° C., 75% RH", "value": 99.68, "unit": "%"},
      {"measurement": "% Purity 2 months", "setting": "[3]; 40° C., 75% RH", "value": 99.67, "unit": "%"},
      {"measurement": "% Purity 3 months", "setting": "[3]; 40° C., 75% RH", "value": 99.66, "unit": "%"},
      {"measurement": "% Purity Initial condition", "setting": "[3]; 40° C., 75% RH", "value": 99.69, "unit": "%"},
      {"measurement": "physical and chemical stability (conclusion)", "setting": "[3]; long-term (25° C., 60% RH) and accelerated (40° C., 75% RH) conditions for 3 months", "value": "good physical and chemical stability"}
    ]}
  ]
}
